The IC50 is the concentration needed to halve the response being measured.

The text below walks through data of patent US5089515A, “Lipid-peroxide formation inhibiting composition and novel compounds useful therefor” (priority 1986, dated 1992).

One series concerns cerebral ischemia model. The series is described as follows: Cerebral protective activity in cerebral ischemia model. It is filed as in vivo, Wistar-strain male rat. Particulars: 10 mg/kg into the duodenum; for restoration of electroencephalogram: 30 minutes before 10 minutes ischemia; for restoration of electroencephalogram / function of the pulsation system: after release of ischemia; for survival period of time: control died 75 minutes in average from blood reflow. The method, then:
(2) Cerebral protective activity in cerebral ischemia model
A Wistar-strain male rat weighing about 400 g was intramuscularly dosed with 0.6 mg of d-tubocurarine to immobilize. After inserting a trachea cannula, the head was fixed to the stereofaxic apparatus under artificial respiration. After incising the head skin and drilling the cranial bone, an electrode for recording electroencephalogram was placed on the surface of the left frontal cortex. After fixing the electrode to the cranial bone using dental cement, the rat was supported in the rear position. Then, a cannula for measuring the blood pressure was intubated to the left femoral artery and another cannula for additionally dosing d-tubocurarine was also intubated to the left femoral vein. The heart rate was measured by a cardiotachometer triggered by pulse pressure.
After reaching the stable state of several parameters including blood pressure, heart rate and electroencephalogram, the effective ingredient of the present invention which was previously prepared so as to form suspension of 1 ml/kg with 1% tragacanth gum solution was directly dosed into the duodenum in a dose of 10 mg/kg at 30 minutes before cerebral ischemia loading. The control group were dosed by the same volume of 1% tragacanth gum solution only.
The blood pressure, heart rate and electroencephalogram were monitored 10 to 20 minutes after drug dosing with the multipurpose polygraph (Model RM-85, made by Nihon Kohden Co., Ltd.), and operation was made according to the following procedure:
Firstly, the ribs were freed from the left costal cartilage and the chest was opened. Then, 30 minutes after drug dosing, the left common carotid artery, left vertebral artery and brachiocephalic artery were simultaneously plugged at the origin of the arteries with artery clips to stop the blood flow into the brain for 10 minutes.
The resumption of blood flow into the brain was conducted by simultaneously releasing the artery clips which were attached to said positions.
The cerebral protective activity of the drug against the disturbance after the release of cerebral ischemic load was investigated by the restoration of electroencephalogram.
During the experiment, the rectal temperature was maintained at 37-38° C. with a heating pad and continuously recorded on the recorder along with electroencephalogram, femoral blood pressure and heart rate.

In series [1] the test system is lipid-peroxide formation in cerebral homogenate. Nature of the series: Lipid-peroxide formation inhibiting activity (TBA method, cerebral homogenate). It is filed as biochemical, Wistar strain male rat. Particulars: rat cerebral homogenate; for IC50: incubated 30 minutes at 37° C; for Percent inhibition at 100 μM: 30 minutes at 37° C. Here is the method:
(1) Lipid-peroxide formation inhibiting activity
(a) Preparation of cerebral homogenate
[…]. Then, cerebral irrigation was made with ice-cold physiological saline solution buffered with 50 mM phosphoric acid (pH value of 7.4, hereinafter referred to as "PBS"), and the whole brain was extracted. After removing the cerebellum, the cerebrum was weighed in the wet state, added with PBS of 9 times the weight and homogenized in ice-cold water with a teflon homogenizer. The cerebral homogenate was centrifuged at […] and 2200 rpm for 10 minutes, and 0.3 ml of the supernatant was partitioned into a ground stoppered light-resistant test tube to prepare a cerebral homogenate to be used for drug evaluation.
(b) Evaluation of test drug
The cerebral homogenate which was prepared by the above procedure (a) was added with 0.6 ml of PBS and 10 μl of ethanol solution which contained the test drug of […] in final concentration and incubated for 30 minutes in a water bath at 37° C. Then, the mixture was added with 200 μl of aqueous 35% solution of perchloric acid and centrifuged at 4° C and 2,600 rpm for 10 minutes to collect the supernatant.
In addition, 10 μl of ethanol (blank) was added instead of the test drug.
(c) Determination of lipid peroxide
The supernatant of 0.1 ml which was obtained in the above procedure (b) was added with 0.2 ml of aqueous 8.1% sodium dodecyl sulfate solution, 1.5 ml of 20% acetic acid buffer solution (pH of 3.5), 1.5 ml of 0.67% 2-thiobarbituric acid solution and 0.7 ml of distilled water and mixed. The mixed solution was heated for 60 minutes in boiling water bath, quenched with ice-cold water and added with 1.0 ml of distilled water and 5.0 ml of a mixture solution of pyridine and butanol (1:15). After 30 seconds of shaking, the mixed solution was centrifuged at 3,000 rpm for 10 minutes, and the supernatant was collected as the sample for lipid peroxide measurement.
In addition, 0.1 ml of Lipoperoxide-test reagent (Wako Pure Chemicals Co., Ltd.: 1,1,3,3-tetraethoxypropane is contained by […]) was added instead of the cerebral homogenate obtained in the above procedure (b) to prepare the reference solution
The amount of lipid peroxide was measured at a excitation wavelength of 515 nm and a fluorescence wavelength of 550 nm using a fluoro-spectrophotometer (Model 204, made by Hitachi, Ltd.) and calculated by the following formula: [formula] where, F=fluorescence intensity of the reference solution
f=fluorescence intensity of the test drug.
Then, the inhibition rates of the test drugs at each concentration were obtained for the TBA value of the blank under (b) above and IC value were calculated by the method of least square means.

The conditions of series [2]: cited from earlier work.
Series [3] relates to lipid peroxidation due to active oxygen species. Particulars: prior art; cited from earlier work.
A further series deals with central nervous system. Particulars: IYAKUHIN KENKYU, 16, 1 (1985); cited from earlier work.

Entries after “also recorded” stand apart in the source; their conditions may differ.

With `O=C1CC(c2cccnc2)=NN1c1ccccc1` [Compound No. 1, 1-phenyl-3-(3-pyridyl)-2-pyrazolin-5-one], in the series with cerebral ischemia model, the restoration of electroencephalogram entry was “the electroencephalogram appeared with restoration during the releasing”; the “function of the pulsation system” value is “the function of the pulsation system was activated and normalized”; the “survival period of time” value is reported as “the survival period of time of the animals of the group was clearly extended”. Further, the IC50 in series [1] came out at 23.6 µM. Take `COC1=C(OC)C(=O)C(CCCCCCCCCCO)=C(C)C1=O` [Idebenon]: the solubility in water entry in series [2] was “difficult to dissolve in water”. Besides, the “inhibition of lipid peroxidation” value in series [3] is listed as “known to inhibit lipid peroxidation due to active oxygen species”.

As for `O=C1CC(Cc2cccnc2)=NN1c1ccccc1` [compound 24], in the series with cerebral ischemia model, the restoration of electroencephalogram entry is given as “the electroencephalogram appeared with restoration during the releasing”; the “function of the pulsation system” value was “the function of the pulsation system was activated and normalized”; the “survival period of time” value is on record as “the survival period of time of the animals of the group was clearly extended”. In series [1], it took 16.4 µM to reach half-maximal inhibition (IC50). In series [1], `O=C1CC(c2ccco2)=NN1c1ccccn1` [compound 37] registered a half-inhibitory concentration (IC50) of 15.4 µM. On the same count and under the same terms, the figure for `O=C1CC(Cn2ccnc2)=NN1c1ccccc1` [compound 38] is 60.1 µM; for `Cc1ccc(N2N=C(Cn3ccnc3)CC2=O)cc1` [compound 39] it is 43 µM. Turning to `O=C1CC(Cn2ccnc2)=NN1C1CCCCC1` [compound 40], in series [1], the “Percent inhibition at 100 μM” value came to 39.4%.

For `Cc1cccc(N2N=C(Cn3ccnc3)CC2=O)c1` [compound 41], 60 µM corresponded to half-maximal inhibition in series [1] (IC50). `CCc1ccc(N2N=C(Cn3ccnc3)CC2=O)cc1` [compound 42] registered a 50% inhibitory concentration (IC50) in series [1] of 24.4 µM. For `COc1ccc(N2N=C(Cn3ccnc3)CC2=O)cc1` [compound 43], the “Percent inhibition at 100 μM” value in series [1] worked out at 30.2%. In turn, `O=C1CC(Cn2ccnc2)=NN1c1ccc(Cl)cc1` [compound 44] yielded an IC50 in series [1] of 22.7 µM. Still for that read-out and setting: the figure for `O=C1CC(Cn2ccnc2)=NN1c1ccc(Cl)c(Cl)c1` [compound 45] is 11 µM; for `CCOC(=O)Cc1ccc(N2N=C(Cn3ccnc3)CC2=O)cc1` [compound 46] it is 60.5 µM; for `CCOC(=O)c1ccc(N2N=C(Cn3ccnc3)CC2=O)cc1` [compound 47] it is 35.1 µM. Consider `O=C1CC(Cn2ccnc2)=NN1c1ccccn1` [compound 51], for which the concentration for half-maximal inhibition (IC50) in series [1] was 51.3 µM. For the compound `CCC1C(=O)N(c2ccccc2)N=C1Cn1ccnc1` (centres unmarked) [compound 52], in series [1], the “Percent inhibition at 100 μM” value stood at 4.3%.

In series [1], `CCC1C(=O)N(c2ccc(C)cc2)N=C1Cn1ccnc1` (centres unmarked) [compound 53] yielded an IC50 of 38.2 µM. `CCC1C(=O)N(c2ccc(Cl)cc2)N=C1Cn1ccnc1` (centres unmarked) [compound 54]: the half-maximal inhibitory concentration (IC50) in series [1] amounted to 37.8 µM. For the compound `CC(C)C1C(=O)N(c2ccccc2)N=C1Cn1ccnc1` (centres unmarked) [compound 55], the “Percent inhibition at 100 μM” value in series [1] worked out at 27.3%.

Turning to `CCN(CC)Cc1nccn1-c1ccc([N+](=O)[O-])cc1C(=O)c1ccccc1Cl` [nizofenone], in series [3], the “inhibition of lipid peroxidation” value is listed as “known to inhibit lipid peroxidation due to active oxygen species”. Moreover, the “depressing the central nervous system” value in the series on central nervous system is reported as “defective in depressing the central nervous system”. In the case of vitamin E, in series [3], the “inhibition of lipid peroxidation” value is “known to inhibit lipid peroxidation due to active oxygen species; also recorded: not sufficient to inhibiting lipid peroxidation”.
